Assay results published in patent US10329243B2, “Biphenyl derivative and uses thereof” (XI'AN LIBANG PHARMACEUTICAL CO., LTD, priority 2015, dated 2019).

Legend:
Assay type in all cases: in vivo, SD rats
SOD [1] = experiment: SOD determination, permanent cerebral ischemia model
Experimental: (§1) Rats were intraperitoneally injected with 10% chloral hydrate 350 mg/kg after anesthesia and opened up at the center of the neck in accordance with the Zea Longa modified method. The right common carotid artery was separated, and the right external carotid artery branches was ligated. A small opening was made at the distal end of the external carotid artery, and a previously prepared thread was inserted through the common carotid artery and the external carotid artery bifurcation into the internal carotid artery, till the anterior end of the middle cerebral artery, with an immersed depth of 18 to 19 mm. The thread was then secured, and the wound was sutured layer by layer. After the operation, the rats were placed in a clean incubator to wake up. […] The sham operation group, the permanent cerebral ischemia model group, and the Example groups were prepared strictly according to the requirements of the cerebral ischemic reperfusion model, while in the sham operation group the thread was put only into the external carotid artery. The animals were allowed to eat and drink freely after waking up. The sham operation group, the permanent cerebral ischemia model group, and the Example groups were administered intravenously the aqueous solution of the biphenyl derivatives in PEG400 at 40 mg/kg (40 mg/kg means that 40 mg of the test compound per kg of the body weight of rats) 30 min before insertion of thread and 12 h after embolism, respectively. The sham operation group and the permanent cerebral ischemia model group were injected with the same amount of blank PEG400 aqueous solution at the same time point.
(§2) 24 hours after the embolism, 8 rats in each group were sacrificed by decapitation, the brain was removed, rinsed with PBS (pH 7.4) at −20°i for 20 min, evenly sliced (with a thickness of 2 mm), stained in a 2% TTC solution at 37°% in the dark for 30 min, fixed in 10% formalin for 24 h, and photographs were taken to analyze the infarct volume. A mixture of femoral arterial and venous blood was drawn from another 8 rats in each group under anesthesia, placed in a low temperature centrifuge at 4° C., centrifuged at 3500 r/min for 20 min, and the supernatant was stored in a refrigerator at −20° C. ready for SOD and MDA detection. After the blood was drawn, a perfusion needle was insert through the apex to the ascending aorta, and saline at 4° C. was rapid infused until the effluent became clear, followed by 4% paraformaldehyde phosphate buffer perfusion for fixation; the brain was removed by craniotomy, and brain tissues 2 mm in front of and behind the optic chiasma were taken and fixed, dehydrated, rendered transparent, impregnated in wax, and embedded. Brain continuous coronary tissue pathological sections were consecutively cut for later use. The remaining 8 rats in each group were sacrificed, brains were removed, the ischemic brain hemispheres were immediately taken on an ice tray, and 10% brain tissue homogenate was prepared for the detection of IL-1β and TNF-α.
(§3) SOD and MDA were determined strictly in accordance with instructions of the kit.

TNF-α [2] = experiment: Determination of TNF-α in brain tissue homogenate, permanent cerebral ischemia model
Experimental: as §1, §2
(§4) Brain tissue homogenate was hypothermally centrifuged at 3000 rpm for 15 min, the supernatant was taken, and IL-1β and TNF-α were determined in strict accordance with instructions of the kits.

IL-1β [3] = experiment: Determination of IL-1β in brain tissue homogenate, permanent cerebral ischemia model
Experimental: as §1, §2, §4

[4] = tested on: rats with cerebral ischemic reperfusion injury; experiment: Relative infarct volume (TTC, imageJ), cerebral ischemic reperfusion MCAO model
Experimental: as §1, with “group, the ischemic reperfusion group, and” for “group, the permanent cerebral ischemia model group, and”, “waking up. After 2 h, the thread was pulled out to achieve reperfusion. The sham” for “waking up. The sham”, “min before reperfusion and 12” for “min before insertion of thread and 12”, “h after reperfusion, respectively. The” for “h after embolism, respectively. The”, “and the ischemic reperfusion group were” for “and the permanent cerebral ischemia model group were”
as §2, with “reperfusion,” for “the embolism,”, “−20° i” for “−20°i”
(§5) The infarct area in each brain section was analyzed and quantified by the imageJ image software, and the ratio of cerebral infarction volume in the overall brain volume was calculated.

SOD [5] = experiment: SOD determination, cerebral ischemic reperfusion MCAO model
Experimental: as §1, with “group, the ischemic reperfusion group, and” for “group, the permanent cerebral ischemia model group, and”, “waking up. After 2 h, the thread was pulled out to achieve reperfusion. The sham” for “waking up. The sham”, “min before reperfusion and 12” for “min before insertion of thread and 12”, “h after reperfusion, respectively. The” for “h after embolism, respectively. The”, “and the ischemic reperfusion group were” for “and the permanent cerebral ischemia model group were”
as §2, with “reperfusion,” for “the embolism,”, “−20° i” for “−20°i”
as §3

IL-1β [6] = experiment: Determination of IL-1β in brain tissue homogenate, cerebral ischemic reperfusion MCAO model
Experimental: as §1, with “group, the ischemic reperfusion group, and” for “group, the permanent cerebral ischemia model group, and”, “waking up. After 2 h, the thread was pulled out to achieve reperfusion. The sham” for “waking up. The sham”, “min before reperfusion and 12” for “min before insertion of thread and 12”, “h after reperfusion, respectively. The” for “h after embolism, respectively. The”, “and the ischemic reperfusion group were” for “and the permanent cerebral ischemia model group were”
as §2, with “reperfusion,” for “the embolism,”, “−20° i” for “−20°i”
as §4

TNF-α [7] = experiment: Determination of TNF-α in brain tissue homogenate, cerebral ischemic reperfusion MCAO model
Experimental: as §1, with “group, the ischemic reperfusion group, and” for “group, the permanent cerebral ischemia model group, and”, “waking up. After 2 h, the thread was pulled out to achieve reperfusion. The sham” for “waking up. The sham”, “min before reperfusion and 12” for “min before insertion of thread and 12”, “h after reperfusion, respectively. The” for “h after embolism, respectively. The”, “and the ischemic reperfusion group were” for “and the permanent cerebral ischemia model group were”
as §2, with “reperfusion,” for “the embolism,”, “−20° i” for “−20°i”
as §4

[8] = tested on: rats with permanent cerebral ischemia injury; experiment: Relative infarct volume (TTC, imageJ), permanent cerebral ischemia model; conditions: for Relative Brain infarction volume (%): 40 mg/kg intravenously 30 min before insertion of thread and 12 h after embolism, 24 h after the embolism
Experimental: as §1, §2, §5

[9] = permanent cerebral ischemia model rats, edaravone 3 mg/kg
[10] = ischemic reperfusion rat model, edaravone 3 mg/kg
[11] = permanent cerebral ischemia model rats, 40 mg/kg intravenously, 10% brain tissue homogenate, 24 h after the embolism, 40 mg/kg
[12] = ischemic reperfusion MCAO rats, 40 mg/kg intravenously, 10% brain tissue homogenate, 24 h after reperfusion, 40 mg/kg
[13] = permanent cerebral ischemia model rats, 40 mg/kg intravenously, serum, 24 h after the embolism
[14] = permanent cerebral ischemia model rats, 40 mg/kg intravenously, 10% brain tissue homogenate, 24 h after the embolism
[15] = ischemic reperfusion MCAO rats, 40 mg/kg intravenously 30 min before and 12 h after reperfusion, 24 h after reperfusion
[16] = ischemic reperfusion MCAO rats, 40 mg/kg intravenously 30 min before and 12 h after reperfusion, serum, 24 h after reperfusion
[17] = ischemic reperfusion MCAO rats, 40 mg/kg intravenously, 10% brain tissue homogenate, 24 h after reperfusion

3,3′,5,5′-tetraisopropylbiphenyl-4,4′-bis(oxymethylene phosphate) [Example 3 group]
SOD ACTIVITY (U/mL) (SOD [1]; rat, in vivo, iv, 40 mg/kg): 93.61 ± 2.13 U/mL
TNF-α content (TNF-α [2]; rat, in vivo, iv, 40 mg/kg): 4.45 ± 0.91 ng/mL
IL-1β content (IL-1β [3]; rat, in vivo, iv, 40 mg/kg): 0.67 ± 0.08 ng/mL
Relative Brain infarction volume (%) ([4]; rat, in vivo, iv, 40 mg/kg): 25.41 ± 3.59 %
SOD ACTIVITY (U/mL) (SOD [5]; rat, in vivo, iv, 40 mg/kg): 93.15 ± 3.05 U/mL
IL-1β content (IL-1β [6]; rat, in vivo, iv, 40 mg/kg): 0.66 ± 0.05 ng/mL
TNF-α content (TNF-α [7]; rat, in vivo, iv, 40 mg/kg): 4.26 ± 0.54 ng/mL

CC1=NN(c2ccccc2)C(=O)C1 [Edaravone injection, edaravone, reference compound]
SOD ACTIVITY (U/mL) (SOD [1]; [9]): 90.62 ± 3.81 U/mL
TNF-α content (TNF-α [2]; [9]): 5.53 ± 0.54 ng/mL
IL-1β content (IL-1β [3]; [9]): 0.76 ± 0.04 ng/mL
Brain relative infarct volume (%) ([8]; edaravone 3 mg/kg): 31.29 ± 4.02 %
Relative Brain infarction volume (%) [4, 10]: 29.31 ± 3.95 %
SOD ACTIVITY (U/mL) (SOD [5]; [10]): 88.16 ± 3.99 U/mL
IL-1β content (IL-1β [6]; [10]): 0.75 ± 0.05 ng/mL
TNF-α content (TNF-α [7]; [10]): 5.14 ± 0.44 ng/mL

CC(=O)Oc1c(C(C)C)cc(-c2cc(C(C)C)c(O)c(C(C)C)c2)cc1C(C)C [Example 1 group, 4′-hydroxy-3,3′,5,5′-tetraisopropylbiphenyl-4-acetate]
SOD ACTIVITY (U/mL) (SOD [1]; permanent cerebral ischemia model rats, 40 mg/kg intravenously, serum, 24 h after the embolism, 40 mg/kg): 97.36 ± 4.51 U/mL
TNF-α content (TNF-α [2]; [11]): 4.25 ± 0.66 ng/mL
IL-1β content (IL-1β [3]; [11]): 0.64 ± 0.09 ng/mL
Relative Brain infarction volume (%) ([8]; 40 mg/kg): 24.71 ± 3.76 %
Relative Brain infarction volume (%) ([4]; ischemic reperfusion MCAO rats, 40 mg/kg intravenously 30 min before and 12 h after reperfusion, 24 h after reperfusion, 40 mg/kg): 18.71 ± 4.69 %
SOD ACTIVITY (U/mL) (SOD [5]; ischemic reperfusion MCAO rats, 40 mg/kg intravenously 30 min before and 12 h after reperfusion, serum, 24 h after reperfusion, 40 mg/kg): 96.78 ± 2.94 U/mL
IL-1β content (IL-1β [6]; [12]): 0.63 ± 0.12 ng/mL
TNF-α content (TNF-α [7]; [12]): 4.11 ± 0.72 ng/mL

CC(=O)Oc1c(C(C)C)cc(-c2cc(C(C)C)c(OC(C)=O)c(C(C)C)c2)cc1C(C)C [Example 2 group, 3,3′,5,5′-tetraisopropylbiphenyl-4′-diacetate]
SOD ACTIVITY (U/mL) (SOD [1]; [13]): 93.28 ± 3.49 U/mL
TNF-α content (TNF-α [2]; [14]): 5.15 ± 0.88 ng/mL
IL-1β content (IL-1β [3]; [14]): 0.78 ± 0.12 ng/mL
Relative Brain infarction volume (%) [8]: 27.92 ± 4.51 %
Relative Brain infarction volume (%) [4, 15]: 23.22 ± 3.12 %
SOD ACTIVITY (U/mL) (SOD [5]; [16]): 94.46 ± 2.19 U/mL
IL-1β content (IL-1β [6]; [17]): 0.79 ± 0.11 ng/mL
TNF-α content (TNF-α [7]; [17]): 5.03 ± 0.59 ng/mL

CC(C)c1cc(-c2cc(C(C)C)c(OC(=O)CCC(=O)O)c(C(C)C)c2)cc(C(C)C)c1O [Example 5 group, [4-(4′-hydroxy-3,3′,5,5′-tetraisopropylbiphenyl)oxy]-4-carbonyl butyric acid]
SOD ACTIVITY (U/mL) (SOD [1]; [13]): 95.31 ± 4.11 U/mL
TNF-α content (TNF-α [2]; [14]): 5.23 ± 0.48 ng/mL
IL-1β content (IL-1β [3]; [14]): 0.72 ± 0.11 ng/mL
Relative Brain infarction volume (%) [8]: 28.37 ± 5.02 %
Relative Brain infarction volume (%) [4, 15]: 23.55 ± 5.67 %
SOD ACTIVITY (U/mL) (SOD [5]; [16]): 95.01 ± 3.22 U/mL
IL-1β content (IL-1β [6]; [17]): 0.74 ± 0.09 ng/mL
TNF-α content (TNF-α [7]; [17]): 5.01 ± 0.59 ng/mL

CCCc1cc(-c2cc(CCC)c(O)c(C(C)C)c2)cc(C(C)C)c1O [Example 6 group, 4,4′-dihydroxy-3,3′-diisopropyl-5,5′-dipropylbiphenyl]
SOD ACTIVITY (U/mL) (SOD [1]; [13]): 97.21 ± 4.36 U/mL
TNF-α content (TNF-α [2]; [14]): 4.99 ± 0.53 ng/mL
IL-1β content (IL-1β [3]; [14]): 0.55 ± 0.05 ng/mL
Relative Brain infarction volume (%) [8]: 22.53 ± 4.62 %
Relative Brain infarction volume (%) [4, 15]: 19.35 ± 4.02 %
SOD ACTIVITY (U/mL) (SOD [5]; [16]): 96.89 ± 3.49 U/mL
IL-1β content (IL-1β [6]; [17]): 0.64 ± 0.03 ng/mL
TNF-α content (TNF-α [7]; [17]): 4.16 ± 0.44 ng/mL

CCCc1cc(-c2cc(CCC)c(O)c(CCC)c2)cc(CCC)c1O [Example 7 group, 4,4′-dihydroxy-3,3′,5,5′-tetrapropylbiphenyl]
SOD ACTIVITY (U/mL) (SOD [1]; [13]): 98.28 ± 3.18 U/mL
TNF-α content (TNF-α [2]; [14]): 4.26 ± 0.40 ng/mL
IL-1β content (IL-1β [3]; [14]): 0.57 ± 0.08 ng/mL
Relative Brain infarction volume (%) [8]: 21.39 ± 4.01 %
Relative Brain infarction volume (%) [4, 15]: 19.29 ± 3.54 %
SOD ACTIVITY (U/mL) (SOD [5]; [16]): 94.51 ± 2.19 U/mL
IL-1β content (IL-1β [6]; [17]): 0.63 ± 0.08 ng/mL
TNF-α content (TNF-α [7]; [17]): 4.32 ± 0.61 ng/mL

CC(C)c1cc(-c2cc(C(C)C)c(Cl)c(C(C)C)c2)cc(C(C)C)c1O [Example 9 group, 4-chloro-4′-hydroxy-3,3′,5,5′-tetraisopropylbiphenyl]
SOD ACTIVITY (U/mL) (SOD [1]; rat, in vivo, iv, 40 mg/kg): 93.62 ± 2.73 U/mL
TNF-α content (TNF-α [2]; rat, in vivo, iv, 40 mg/kg): 5.17 ± 0.40 ng/mL
IL-1β content (IL-1β [3]; rat, in vivo, iv, 40 mg/kg): 0.62 ± 0.12 ng/mL
Relative Brain infarction volume (%) ([4]; rat, in vivo, iv, 40 mg/kg): 24.74 ± 6.13 %
SOD ACTIVITY (U/mL) (SOD [5]; rat, in vivo, iv, 40 mg/kg): 92.26 ± 2.96 U/mL
IL-1β content (IL-1β [6]; rat, in vivo, iv, 40 mg/kg): 0.63 ± 0.07 ng/mL
TNF-α content (TNF-α [7]; rat, in vivo, iv, 40 mg/kg): 5.02 ± 0.39 ng/mL
